Test results as given in the supplement of paper PMC11208160.

Assay: recombinant UMI read abundance after kanamycin selection (control-corrected) (log10(CPM+1)); higher = more efficient recombination; extreme values may be limits of the assay; sequences stand for … in AGTGCAGAGAAAATCGGCCAGTTTTCTCTGCCTGCAGTCCGCATGCCGTGGGACCCCTTGGGTTCTAACCTGTTGCCTAGATTTATGCAGCGGACTGCCTTTCTCCCAAAGTGATAAACCGG…AGGTTGGTTTCACT; site = the 11-nt donor
In short: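 Values, expressed as log10(CPM+1), derive from recombinant UMI counts converted to CPM, averaged across replicates and scaled by control-derived factors. Plating was with IPTG (0.07 mM) plus kanamycin or unselected, two replicates each. The screen pooled donor and donor-binding-loop pairs for the IS621 bridge recombinase in Escherichia coli.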
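Further: IS621 bridge recombinase in Escherichia coli cells against a fixed T5 target plasmid.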

Sequence | recombinant UMI read abundance (log10)
ATGCAAGCATGGACCGGTTTTCCCGGTAATCCGTATTTGAG (site ATACAAGCTCT) | 2.24
ATGCAAGCATGGACCGGTTTTCCCGGTAATCCGTATTTGAG (site ATCCAAGCTCT) | 0.701
ATGCAAGCATGGACCGGTTTTCCCGGTAATCCGTATTTGAG (site ATGCAAGCTCT) | 2.26
ATGCAAGCATGGACCGGTTTTCCCGGTAATCCGTATTTGAG (site ATTCAAGCTCT) | 0.614
ATGCAAGCATGGACCGGTTTTCCCGGTAATCCGTATTTGGA (site ATGCAAGCTTC) | 1.86
ATGCAGACATGGACCGGTTTTCCCGGTAATCCGTATTTGCA (site AGGAAGACTTG) | 0
ATGCAGACATGGACCGGTTTTCCCGGTAATCCGTATTTGCA (site ATGCAGACTTG) | 2.15
ATGCATGCATGGACCGGTTTTCCCGGTAATCCGTATTTGGT (site ATGCATGCTAC) | 1.67
ATGCATGCATGGACCGGTTTTCCCGGTAATCCGTATTTGGT (site CTGCATGCTAC) | 0.628
ATGCATGCATGGACCGGTTTTCCCGGTAATCCGTATTTGGT (site GTGCATGCTAC) | 0.323
ATGCATGCATGGACCGGTTTTCCCGGTAATCCGTATTTGGT (site TTGCATGCTAC) | 0.601
ATGCTCGCATGGACCGGTTTTCCCGGTAATCCGTATTTGAA (site ATGCTCGCTTT) | 1.82
ATGGCACCATGGACCGGTTTTCCCGGTAATCCGTATTTGGG (site ATGGCACCTCC) | 0.00577
ATGGGAGCATGGACCGGTTTTCCCGGTAATCCGTATTTGTA (site ATGGGAGCTTA) | 2.2
ATGGGCCCATGGACCGGTTTTCCCGGTAATCCGTATTTGAC (site ATGGGCCCTGT) | 0.523
ATGGGTACATGGACCGGTTTTCCCGGTAATCCGTATTTGGC (site ATGGGTACTGC) | 2.89
ATGGTAGCATGGACCGGTTTTCCCGGTAATCCGTATTTGGA (site ATGGTAGCTTC) | 1.72
ATGGTATCATGGACCGGTTTTCCCGGTAATCCGTATTTGAC (site ATGGTATCTGT) | 3.67
ATGGTATCATGGACCGGTTTTCCCGGTAATCCGTATTTGAC (site CTAGTATCTGT) | 2.1
ATGGTATCATGGACCGGTTTTCCCGGTAATCCGTATTTGCA (site ACAGTATCTTG) | 1.69
ATGGTATCATGGACCGGTTTTCCCGGTAATCCGTATTTGCA (site ATGGTATCTTG) | 3.07
ATGGTTTCATGGACCGGTTTTCCCGGTAATCCGTATTTGTA (site ATGGTTTCTTA) | 2.68
ATGTACGCATGGACCGGTTTTCCCGGTAATCCGTATTTGGC (site ATGTAAGCTGC) | 1.81
ATGTACGCATGGACCGGTTTTCCCGGTAATCCGTATTTGGC (site ATGTACGCTGC) | 3.06
ATGTACGCATGGACCGGTTTTCCCGGTAATCCGTATTTGGC (site ATGTAGGCTGC) | 0

Sequence | recombinant UMI read abundance (log10)
ATGTACGCATGGACCGGTTTTCCCGGTAATCCGTATTTGGC (site ATGTATGCTGC) | 0
ATGTACTCATGGACCGGTTTTCCCGGTAATCCGTATTTGCA (site ATGTACTCTTG) | 2.96
ATGTAGCCATGGACCGGTTTTCCCGGTAATCCGTATTTGGC (site ATGTAGACTGC) | 0
ATGTAGCCATGGACCGGTTTTCCCGGTAATCCGTATTTGGC (site ATGTAGCCTGC) | 0.669
ATGTAGCCATGGACCGGTTTTCCCGGTAATCCGTATTTGGC (site ATGTAGGCTGC) | 0
ATGTAGCCATGGACCGGTTTTCCCGGTAATCCGTATTTGGC (site ATGTAGTCTGC) | 1.33
ATGTAGGCATGGACCGGTTTTCCCGGTAATCCGTATTTGGC (site AAGTAGGCTGC) | 1.22
ATGTAGGCATGGACCGGTTTTCCCGGTAATCCGTATTTGGC (site ACGTAGGCTGC) | 1.74
ATGTAGGCATGGACCGGTTTTCCCGGTAATCCGTATTTGGC (site AGGTAGGCTGC) | 0.332
ATGTAGGCATGGACCGGTTTTCCCGGTAATCCGTATTTGGC (site ATATAGGCTGC) | 2.8
ATGTAGGCATGGACCGGTTTTCCCGGTAATCCGTATTTGGC (site ATCTAGGCTGC) | 0.844
ATGTAGGCATGGACCGGTTTTCCCGGTAATCCGTATTTGGC (site ATGAAGGCTGC) | 2.35
ATGTAGGCATGGACCGGTTTTCCCGGTAATCCGTATTTGGC (site ATGCAGGCTGC) | 2.19
ATGTAGGCATGGACCGGTTTTCCCGGTAATCCGTATTTGGC (site ATGGAGGCTGC) | 0
ATGTAGGCATGGACCGGTTTTCCCGGTAATCCGTATTTGGC (site ATGTAAGCTGC) | 2.28
ATGTAGGCATGGACCGGTTTTCCCGGTAATCCGTATTTGGC (site ATGTACGCTGC) | 0.834
ATGTAGGCATGGACCGGTTTTCCCGGTAATCCGTATTTGGC (site ATGTAGACTGC) | 2.34
ATGTAGGCATGGACCGGTTTTCCCGGTAATCCGTATTTGGC (site ATGTAGCCTGC) | 0.604
ATGTAGGCATGGACCGGTTTTCCCGGTAATCCGTATTTGGC (site ATGTAGGCTAC) | 1.17
ATGTAGGCATGGACCGGTTTTCCCGGTAATCCGTATTTGGC (site ATGTAGGCTCC) | 0.328
ATGTAGGCATGGACCGGTTTTCCCGGTAATCCGTATTTGGC (site ATGTAGGCTGA) | 2.15
ATGTAGGCATGGACCGGTTTTCCCGGTAATCCGTATTTGGC (site ATGTAGGCTGC) | 2.4
ATGTAGGCATGGACCGGTTTTCCCGGTAATCCGTATTTGGC (site ATGTAGGCTGG) | 2.41
ATGTAGGCATGGACCGGTTTTCCCGGTAATCCGTATTTGGC (site ATGTAGGCTGT) | 2.51
ATGTAGGCATGGACCGGTTTTCCCGGTAATCCGTATTTGGC (site ATGTAGGCTTC) | 1.15

Sequence | recombinant UMI read abundance (log10)
ATGTAGGCATGGACCGGTTTTCCCGGTAATCCGTATTTGGC (site ATGTAGTCTGC) | 1.06
ATGTAGGCATGGACCGGTTTTCCCGGTAATCCGTATTTGGC (site ATGTATGCTGC) | 0.657
ATGTAGGCATGGACCGGTTTTCCCGGTAATCCGTATTTGGC (site ATGTCGGCTGC) | 0.474
ATGTAGGCATGGACCGGTTTTCCCGGTAATCCGTATTTGGC (site ATGTGGGCTGC) | 0.618
ATGTAGGCATGGACCGGTTTTCCCGGTAATCCGTATTTGGC (site ATGTTGGCTGC) | 0.568
ATGTAGGCATGGACCGGTTTTCCCGGTAATCCGTATTTGGC (site ATTTAGGCTGC) | 0.516
ATGTAGGCATGGACCGGTTTTCCCGGTAATCCGTATTTGGC (site CTGTAGGCTGC) | 0.572
ATGTAGGCATGGACCGGTTTTCCCGGTAATCCGTATTTGGC (site GTGTAGGCTGC) | 0.716
ATGTAGGCATGGACCGGTTTTCCCGGTAATCCGTATTTGGC (site TTGTAGGCTGC) | 1.95
ATGTAGGCATGGACCGGTTTTCCCGGTAATCCGTATTTGGG (site ATGTAGGCTAC) | 0.251
ATGTAGGCATGGACCGGTTTTCCCGGTAATCCGTATTTGGG (site ATGTAGGCTCC) | 0.167
ATGTAGGCATGGACCGGTTTTCCCGGTAATCCGTATTTGGG (site ATGTAGGCTGC) | 0
ATGTAGGCATGGACCGGTTTTCCCGGTAATCCGTATTTGGG (site ATGTAGGCTTC) | 0.0205
ATGTAGGCATGGACCGGTTTTCCCGGTAATCCGTATTTGTC (site ATGTAGGCTGA) | 2.72
ATGTAGGCATGGACCGGTTTTCCCGGTAATCCGTATTTGTC (site ATGTAGGCTGC) | 1.62
ATGTAGGCATGGACCGGTTTTCCCGGTAATCCGTATTTGTC (site ATGTAGGCTGG) | 2.52
ATGTAGGCATGGACCGGTTTTCCCGGTAATCCGTATTTGTC (site ATGTAGGCTGT) | 1.91
ATGTATACATGGACCGGTTTTCCCGGTAATCCGTATTTGCA (site ATGTATACTTG) | 2.39
ATGTCGACATGGACCGGTTTTCCCGGTAATCCGTATTTGCG (site ATGTCGACTCG) | 0.954
ATGTCGGCATGGACCGGTTTTCCCGGTAATCCGTATTTGGC (site ATGTAGGCTGC) | 0.445
ATGTCGGCATGGACCGGTTTTCCCGGTAATCCGTATTTGGC (site ATGTCGGCTGC) | 2.2
ATGTCGGCATGGACCGGTTTTCCCGGTAATCCGTATTTGGC (site ATGTGGGCTGC) | 0
ATGTCGGCATGGACCGGTTTTCCCGGTAATCCGTATTTGGC (site ATGTTGGCTGC) | 0.0547
ATGTTCACATGGACCGGTTTTCCCGGTAATCCGTATTTGGT (site ATGTTCACTAC) | 1.66
ATGTTTGCATGGACCGGTTTTCCCGGTAATCCGTATTTGCG (site ATGTTTGCTCG) | 1.95
